Laboratory results from ChEMBL document CHEMBL1909281, “FDA-approved drug labeling for the study of drug-induced liver injury” (Drug Discov Today, 2011).

tested on: Hepatotoxicity; details: not given
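Further: severity score taken from the FDA LTKB benchmark dataset, subset of drugs classed as lower DILI concern.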

Compound | LTKB_BD DILI severity score
CCCNC(=O)NS(=O)(=O)c1ccc(Cl)cc1 [CHLORPROPAMIDE] | 2
CC(C)Cc1ccc(C(C)C(=O)O)cc1 (stereo not drawn) [IBUPROFEN] | 3
CNCCC(Oc1ccc(C(F)(F)F)cc1)c1ccccc1 (stereo not drawn) [FLUOXETINE] | 3
C=CC[C@@H]1/C=C(\C)C[C@H](C)C[C@H](OC)[C@H]2O[C@@](O)(C(=O)C(=O)N3CCCC[C@H]3C(=O)O[C@H](/C(C)=C/[C@@H]3CC[C@@H](O)[C@H](OC)C3)[C@H](C)[C@@H](O)CC1=O)[C@H](C)C[C@@H]2OC [TACROLIMUS ANHYDROUS] | 5
CC[C@H](C)C(=O)O[C@H]1C[C@H](O)C=C2C=C[C@H](C)[C@H](CC[C@@H](O)C[C@@H](O)CC(=O)O)[C@H]21 [PRAVASTATIN] | 3
COC(=O)Nc1nc2ccc(C(=O)c3ccccc3)cc2[nH]1 [MEBENDAZOLE] | 3
CCC1(c2ccccc2)C(=O)NC(=O)NC1=O [PHENOBARBITAL] | 3
Nc1nc(O)c2ncn(COC(CO)CO)c2n1 [GANCICLOVIR] | 7
CC(C(=O)O)c1ccc(-c2ccccc2)c(F)c1 (stereo not drawn) [FLURBIPROFEN] | 3
COCCc1ccc(OCC(O)CNC(C)C)cc1 (stereo not drawn) [METOPROLOL] | 5
CC(C)OC(=O)C(C)(C)Oc1ccc(C(=O)c2ccc(Cl)cc2)cc1 [FENOFIBRATE] | 3
CN1CCN(CCCN2c3ccccc3Sc3ccc(C(F)(F)F)cc32)CC1 [TRIFLUOPERAZINE] | 2
CCc1ccc(CCOc2ccc(CC3SC(=O)NC3=O)cc2)nc1 (stereo not drawn) [PIOGLITAZONE] | 3
C[C@H]1c2cccc(O)c2C(=O)C2=C(O)[C@]3(O)C(=O)C(C(N)=O)=C(O)[C@@H](N(C)C)[C@@H]3[C@@H](O)[C@@H]21.O [DOXYCYCLINE] | 3
C[C@@H]1C[C@H]2[C@@H]3CCC4=CC(=O)C=C[C@]4(C)[C@@]3(F)[C@@H](O)C[C@]2(C)[C@@]1(O)C(=O)CO [DEXAMETHASONE] | 3
COc1ccc2c(c1)c(CC(=O)O)c(C)n2C(=O)c1ccc(Cl)cc1 [INDOMETHACIN] | 3
Oc1ncnc2[nH]ncc12 [ALLOPURINOL] | 3
NC(=O)c1cnccn1 [PYRAZINAMIDE] | 3
CNC(=C[N+](=O)[O-])NCCSCc1csc(CN(C)C)n1 [NIZATIDINE] | 5
CN1CCN(C2=Nc3cc(Cl)ccc3Nc3ccccc32)CC1 [CLOZAPINE] | 2
CC(=O)CC(c1ccccc1)c1c(O)c2ccccc2oc1=O (stereo not drawn) [WARFARIN] | 5
CN(C)[C@@H]1C(O)=C(C(N)=O)C(=O)[C@@]2(O)C(O)=C3C(=O)c4c(O)cccc4[C@@](C)(O)[C@H]3[C@H](O)[C@@H]12 [OXYTETRACYCLINE] | 2
NC(=O)c1ncn([C@@H]2O[C@H](CO)[C@@H](O)[C@H]2O)n1 [RIBAVIRIN] | 7

same assay, conditions: Liver

Compound | LTKB_BD DILI severity score
CNCCCC12CCC(c3ccccc31)c1ccccc12 [MAPROTILINE] | 5
Cn1cnc([N+](=O)[O-])c1Sc1ncnc2nc[nH]c12 [AZATHIOPRINE] | 3
O=C1NC(=O)C(c2ccccc2)(c2ccccc2)N1 [PHENYTOIN] | 3
CC(C)(C)NC(=O)[C@@H]1C[C@@H]2CCCC[C@@H]2CN1C[C@@H](O)[C@H](Cc1ccccc1)NC(=O)[C@H](CC(N)=O)NC(=O)c1ccc2ccccc2n1 | 3
CN[C@H]1CC[C@@H](c2ccc(Cl)c(Cl)c2)c2ccccc21 [SERTRALINE] | 3
